{"source": "patent US5164381A", "about": "“Pharmacologically active 1,5-diaryl-3-substituted pyrazoles and method for synthesizing the same” (Ortho Pharmaceutical Corporation, priority 1991, dated 1992)", "key": {"bronchospasm / LTB4": {"system": "bronchospasm / LTB4", "test": "Arachidonic acid-induced bronchospasm and LTB4 blood levels in anesthetized guinea pigs", "assay_type": "in vivo", "conditions": "AA i.v. 10 mg/kg", "method": "Intravenous administration of 10 mg/kg AA to anesthetized guinea pigs pretreated with indomethacin (10 mg/kg) and propranolol (0.1 mg/kg) results in a sustained bronchospasm which is associated with increased blood levels of LTB4. […] In the dog, intraarticular injection of rabbit anti-dog-dog IgG immune complexes into the knee joint results in an acute synovitis characterized by an influx of inflammatory cells into the joint space as well as an increase in synovial fluid levels of PGE2 and LTB4."}, "cyclooxygenase (CO)": {"system": "cyclooxygenase (CO)", "conditions": "cited from earlier work"}, "[1]": {"system": "Lewis strain laboratory rats", "test": "In vivo alleviation of inflammation: polyarthritis (adjuvant, Mycobacterium butyricum) in rats, inhibition of paw volume increase", "conditions": "po, rat; for ED50: Rattus norvegicus, read-out: ED50 (effective dose to obtain a 50% inhibition of inflammation); for inhibition in vivo at 25 mg/kg: 25 mpk p.o.; for inhibition in vivo at 50 mg/kg: 50 mpk p.o.; for inhibition in vivo at 40 mg/kg: 40 mpk p.o.; for inhibition in vivo at 15 mg/kg: 15 mpk p.o.", "method": "Polyarthritis was induced in Lewis strain laboratory rats (weight=about 200 grams) by injection of a suspension of Mycobacterium butyricum in mineral oil into the subplantar tissue of the mammal's hind paws. On day 10 after the injection, the rats were assigned to groups, and paw volumes and body weights were recorded. Paw volumes of the contralateral, uninjected hind paw were determined by mercury plethylsmography. Per oral (p.o.) dosing began and continued for five consecutive days thereafter. On day 14 after the initial injection, approximately four hours after the final dose was administered, paw volumes and body weights were recorded and quantitated.\nAnti-inflammatory activity of the substituted pyrazole compounds is expressed as the percent inhibition of paw volume increase."}, "interleukin-1": {"system": "interleukin-1", "conditions": "in vitro and in vivo; cited from earlier work"}, "C-reactive protein": {"system": "C-reactive protein", "conditions": "rheumatoid arthritis patients; cited from earlier work"}, "[2]": {"conditions": "336 h, read-out: % INH. p.o. (percentage inhibition of pad swelling)"}}}
{"smiles": "COc1ccc2c(c1)c(CC(=O)O)c(C)n2C(=O)c1ccc(Cl)cc1", "note": "[indomethacin]", "values": [{"measurement": "effect on LTB4 levels (in words)", "setting": "bronchospasm / LTB4", "value": "no effect"}, {"measurement": "effect on bronchospasm (in words)", "setting": "bronchospasm / LTB4", "value": "no effect"}, {"measurement": "inhibition of cyclooxygenase enzyme by NSAIDs (in words)", "setting": "cyclooxygenase (CO)", "value": "only inhibit the cyclooxygenase enzyme"}]}
{"smiles": "COc1ccc(-n2nc(CCCO)cc2-c2ccc(C(F)(F)F)cc2)cc1", "note": "[Compound 56, 5-(4-trifluoromethylphenyl)-3-(3-hydroxypropyl)-1-(4-methoxyphenyl) pyrazole]", "values": [{"measurement": "ED50", "setting": "[1]", "value": 3, "unit": "mg/kg"}]}
{"smiles": "OCCCc1cc(-c2ccc(Cl)cc2)n(-c2ccc(Br)cc2)n1", "note": "[Compound 35, 1-(4-bromophenyl)-5-(4-chlorophenyl)-3-(3-hydroxypropyl) pyrazole]", "values": [{"measurement": "inhibition in vivo at 25 mg/kg", "setting": "[1]; [2]", "value": 65, "unit": "%"}]}
{"smiles": "COc1ccc(-n2nc(CCC(=O)O)cc2-c2cccc(C)c2)cc1", "note": "[Compound 106]", "values": [{"measurement": "inhibition in vivo at 10 mg/kg", "setting": "[1]; 336 h, 10 mpk p.o., read-out: % INH. p.o. (percentage inhibition of pad swelling)", "value": 11, "unit": "%"}]}
{"smiles": "CS(=O)(=O)c1ccc(-n2nc(CCCO)cc2-c2ccc(Cl)cc2)cc1", "note": "[Compound 36]", "values": [{"measurement": "inhibition in vivo at 50 mg/kg", "setting": "[1]; [2]", "value": 40, "unit": "%"}]}
{"smiles": "CCOC(=O)CCc1cc(-c2ccc(Cl)cc2)n(-c2ccc(OCC)cc2)n1", "note": "[Compound 75]", "values": [{"measurement": "inhibition in vivo at 40 mg/kg", "setting": "[1]; [2]", "value": 73, "unit": "%"}]}
{"smiles": "COc1ccccc1-n1nc(CCCO)cc1-c1ccc(Cl)cc1", "note": "[Compound 22]", "values": [{"measurement": "inhibition in vivo at 50 mg/kg", "setting": "[1]; [2]", "value": 33, "unit": "%"}]}
{"smiles": "COc1ccc(-n2nc(CCC(=O)N(C)OC)cc2-c2ccc(Cl)cc2)cc1", "note": "[Compound 44]", "values": [{"measurement": "inhibition in vivo at 25 mg/kg", "setting": "[1]; [2]", "value": 69, "unit": "%"}]}
{"smiles": "COc1ccc(-n2nc(CCC(C)O)cc2-c2ccc(Cl)cc2)cc1", "note": "(stereo not shown) [Compound 20, 5-(4-Chlorophenyl)-3-(3-hydroxybutyl)-1-(4-methoxyphenyl) pyrazole]", "values": [{"measurement": "inhibition in vivo at 40 mg/kg", "setting": "[1]; [2]", "value": 19, "unit": "%"}]}
{"smiles": "COc1ccc(-n2nc(CCCO)cc2-c2ccc(C)cc2)cc1", "note": "[Compound 55, 3-(3-hydroxypropyl)-1-(4-methoxyphenyl)-5-(4-tolyl)pyrazole]", "values": [{"measurement": "ED50", "setting": "[1]", "value": 3.9, "unit": "mg/kg"}]}
{"smiles": "COc1ccc(-n2nc(CCC(C)=O)cc2-c2ccc(Cl)cc2)cc1", "note": "[Compound 23, 5-(4-Chlorophenyl)-1-(4-methoxyphenyl)-3-(3-oxobutyl)pyrazole]", "values": [{"measurement": "inhibition in vivo at 40 mg/kg", "setting": "[1]; [2]", "value": 53, "unit": "%"}]}
{"smiles": "COc1ccc(-n2nc(CCC(=O)NCCO)cc2-c2ccc(Cl)cc2)cc1", "note": "[Compound 65]", "values": [{"measurement": "inhibition in vivo at 15 mg/kg", "setting": "[1]; [2]", "value": 21, "unit": "%"}]}
{"smiles": "COc1ccc(-n2nc(CCC(=O)N(C)OC(=O)CCl)cc2-c2ccc(Cl)cc2)cc1", "note": "[Compound 139, 3-[5-(4-Chlorophenyl)-1-(4-methoxyphenyl)-3-pyrazolyl]N-chloroacetyloxy-N-methylpropanamide]", "values": [{"measurement": "ED50", "setting": "[1]", "value": 6, "unit": "mg/kg"}]}
{"smiles": "COc1ccc(-n2nc(CCC=NNc3nccs3)cc2-c2ccc(Cl)cc2)cc1", "note": "[Compound 174]", "values": [{"measurement": "inhibition in vivo at 15 mg/kg", "setting": "[1]; [2]", "value": 37, "unit": "%"}]}
{"smiles": "CCC(O)CCc1cc(-c2ccc(Cl)cc2)n(-c2ccc(OC)cc2)n1", "note": "(stereo not shown) [Compound 177]", "values": [{"measurement": "inhibition in vivo at 15 mg/kg", "setting": "[1]; [2]", "value": 16, "unit": "%"}]}
{"smiles": "COc1ccc(-n2nc(CCNC(=O)C(=O)N(C)O)cc2-c2ccc(Cl)cc2)cc1", "note": "[Compound 163]", "values": [{"measurement": "inhibition in vivo at 15 mg/kg", "setting": "[1]; [2]", "value": 28, "unit": "%"}]}
{"smiles": "NC(=O)N1C(=O)C(=C(O)c2cccs2)c2cc(Cl)ccc21", "note": "[CP 66,248]", "values": [{"measurement": "inhibition of interleukin-1 levels (in words)", "setting": "interleukin-1", "value": "could inhibit interleukin-1 levels in vitro and in vivo"}, {"measurement": "C-reactive protein levels (in words)", "setting": "C-reactive protein", "value": "reduction of C-reactive protein levels"}]}
{"smiles": "COc1ccc(-n2nc(CCC(=O)NCC(=O)N(C)O)cc2-c2ccc(Cl)cc2)cc1", "note": "[Compound 89]", "values": [{"measurement": "inhibition in vivo at 15 mg/kg", "setting": "[1]; [2]", "value": 57, "unit": "%"}]}
{"smiles": "COc1ccc(-n2nc(CCC(=O)ONC(C)(C)C)cc2-c2ccc(Cl)cc2)cc1", "note": "[Compound 57, 0-[2-[5-(4-Chlorophenyl)-1-(4-methoxyphenyl)-3-pyrazolyl]ethylcarbonyl]-N-tert-butylhydroxylamine]", "values": [{"measurement": "inhibition in vivo at 25 mg/kg", "setting": "[1]; [2]", "value": 87, "unit": "%"}]}
